Our source for the DC50 and Dmax values is patent US20250214967A1, “FAK DEGRADERS, PHARMACEUTICAL COMPOSITIONS, AND THERAPEUTIC APPLICATIONS” (Berrybio (Shanghai) Limited, priority 2022, published 2025).

The target of this assay is FAK (Homo sapiens (Human), UniProt Q05397). The experiment in a line: FAK Degradation Assay (Western blot, FAK/GAPDH). It is filed as cell-based. The following applies: MDA-MB-231 cells, 24 h treatment, Western blot normalized to DMSO; for DC50: read-out: DC50 (half-maximal degradation concentration), FAK Degradation; for Dmax: read-out: Dmax (maximal degradation), FAK Degradation. How it is done: H2122 (4×10^5), MIA PaCa-2 (6×10s), or MDA-MB-231 cells (6×10^5) per well were seeded into a 6-well plate containing 2 mL of complete culture medium (RPMI-1640 for H2122 and MDA-MB-231, and DMEM/F12 for MIA PaCa-2, supplemented with 10% FBS and 1% penicillin/streptomycin). The cells were cultured overnight at 37° C. in the presence of 5% C02 before treated with a compound in a series of concentrations for 24 h. The cells were then washed with ice-cold Dulbecco's phosphate-buffered saline (DPBS). A radioimmuno-precipitation assay (RIPA) buffer was added to lyse the cells on ice for 20 min. The cells were then scrapped using cell scraper and collected in a 1.5 mL tube, which was centrifuged at 14,000 g and 4° C. for 15 min. The supernatant was collected and the total protein concentration of each sample was determined using a PIERCE™ BCA protein assay kit. The supernatant was diluted to the same protein concentration with the RIPA buffer after the BCA assay. Samples of the same protein amount were mixed with 4× a lithium dodecyl sulfate (LDS) sample buffer and boiled at 95° C. for 5 min. The denatured samples were used for electrophoresis.
Sequence of FAK (Q05397 whole entry): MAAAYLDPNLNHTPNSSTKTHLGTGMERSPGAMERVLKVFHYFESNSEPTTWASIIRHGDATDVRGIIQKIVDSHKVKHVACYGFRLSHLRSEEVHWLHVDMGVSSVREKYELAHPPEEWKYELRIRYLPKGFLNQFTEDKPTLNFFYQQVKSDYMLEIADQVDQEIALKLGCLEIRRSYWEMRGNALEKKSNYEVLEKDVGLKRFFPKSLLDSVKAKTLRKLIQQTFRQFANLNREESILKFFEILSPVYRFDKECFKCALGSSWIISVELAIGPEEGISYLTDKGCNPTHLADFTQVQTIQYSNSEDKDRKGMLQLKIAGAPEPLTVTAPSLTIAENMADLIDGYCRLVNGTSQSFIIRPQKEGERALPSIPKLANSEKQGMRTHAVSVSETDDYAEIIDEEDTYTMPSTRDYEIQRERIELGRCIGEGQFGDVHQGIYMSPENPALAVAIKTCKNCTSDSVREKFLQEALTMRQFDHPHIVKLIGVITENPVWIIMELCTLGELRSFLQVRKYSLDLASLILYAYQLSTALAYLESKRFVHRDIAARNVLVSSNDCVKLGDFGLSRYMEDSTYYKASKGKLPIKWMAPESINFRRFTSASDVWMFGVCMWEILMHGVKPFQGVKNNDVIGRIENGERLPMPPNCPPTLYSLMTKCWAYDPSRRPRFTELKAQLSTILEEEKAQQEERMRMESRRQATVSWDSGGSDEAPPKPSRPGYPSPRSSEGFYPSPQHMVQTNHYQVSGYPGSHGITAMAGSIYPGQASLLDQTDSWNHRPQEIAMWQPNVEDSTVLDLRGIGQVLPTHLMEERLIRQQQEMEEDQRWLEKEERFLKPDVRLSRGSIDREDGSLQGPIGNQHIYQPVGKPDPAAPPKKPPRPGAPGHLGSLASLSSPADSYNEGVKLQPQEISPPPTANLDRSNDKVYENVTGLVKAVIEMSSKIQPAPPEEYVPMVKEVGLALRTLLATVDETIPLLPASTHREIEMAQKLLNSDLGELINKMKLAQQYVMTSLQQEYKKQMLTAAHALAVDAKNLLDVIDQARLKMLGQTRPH
For Western blot, the same volume containing ˜50 μg protein for each sample was loaded onto 4-12% Bis-Tris protein gel. The gel was run at 80 V for 0.5 h and at 120 V for 1 h. When the electrophoresis was completed, an IBLOT™ 2 gel transfer device was used to transfer FAK and GAPDH proteins at 20 V for 7 min. All the membranes were blocked in 5% nonfat dry milk in a TBST buffer at RT for 1 h and then incubated with primary antibodies (anti-FAK and anti-GAPDH) in a TBST buffer containing 5% BSA at 4° C. overnight. The membranes were washed with the TBST buffer and then incubated with secondary antibodies (goat anti-rabbit IgG H&L for FAK and goat anti-mouse IgG H&L for GAPDH) at room temperature for 1 h. Blots were visualized using an IMAGEQUANT™ LAS-4000. The chemiluminescent signals from ECL™ Western blotting reagents were captured. The band integrated intensity from each 16-bit blot image was used for quantitation. The FAK/GAPDH signal ratios of each sample were normalized using DMSO as a control and the normalized data for each compound were used to obtain its half-maximal degradation concentration (DC50) and maximal degradation (Dmax).

In the case of `CS(=O)(=O)c1cccc(CNc2nc(Nc3ccc4c(c3)CC(=O)N4CC3CCN(c4ccc5c(c4)C(=O)N(C4CCC(=O)NC4=O)C5=O)CC3)ncc2C(F)(F)F)c1` (centres unmarked) [Compound A23, 2-(2,6-dioxopiperidin-3-yl)-5-(4-((5-((4-((3-(methylsulfonyl)benzyl)amino)-5-(trifluoromethyl)pyrimidin-2-yl)amino)-2-oxoindolin-1-yl)methyl)piperidin-1-yl)isoindoline-1,3-dione], the DC50 amounted to 1.3 nM and the Dmax (in general, the largest share of the target that was removed) turned out to be 96%.

`CS(=O)(=O)c1cccc(CNc2nc(Nc3ccc(CNC4CCN(c5ccc6c(c5)C(=O)N(C5CCC(=O)NC5=O)C6=O)CC4)cc3)ncc2C(F)(F)F)c1` (centres unmarked) [Compound A24, 2-(2,6-Dioxopiperidin-3-yl)-5-(4-((4-((4-((3-(methylsulfonyl)benzyl)amino)-5-(trifluoromethyl)pyrimidin-2-yl)amino)benzyl)amino)piperidin-1-yl)isoindoline-1,3-dione]: the DC50 came out at 0.7 nM and the Dmax turned out to be 87%.

Turning to `CNC(=O)c1ccccc1Nc1nc(Nc2ccc(CNC3CCN(c4ccc5c(c4)C(=O)N(C4CCC(=O)NC4=O)C5=O)CC3)cc2)ncc1C(F)(F)F` (centres unmarked) [Compound A25, 2-((2-((4-(((1-(2-(2,6-dioxopiperidin-3-yl)-1,3-dioxoisoindolin-5-yl)piperidin-4-yl)amino)methyl)phenyl)amino)-5-(trifluoromethyl)pyrimidin-4-yl)amino)-N-methylbenzamide], the DC50 amounted to 0.13 nM and the Dmax was found to be 97%.

Regarding `O=C1CCC(N2C(=O)c3ccc(N4CCC(NCc5ccc(Nc6ncc(C(F)(F)F)c(Oc7cccc8c7C(=O)CC8)n6)cc5)CC4)cc3C2=O)C(=O)N1` (centres unmarked) [Compound A27, 2-(2,6-dioxopiperidin-3-yl)-5-(4-((4-((4-((3-oxo-2,3-dihydro-1H-inden-4-yl)oxy)-5-(trifluoromethyl)pyrimidin-2-yl)amino)benzyl)amino)piperidin-1-yl)isoindoline-1,3-dione], the DC50 was 1.3 nM and the Dmax stood at 94%.

As to `CN1Cc2cccc(Oc3nc(Nc4ccc(CNC5CCN(c6ccc7c(c6)C(=O)N(C6CCC(=O)NC6=O)C7=O)CC5)cc4)ncc3C(F)(F)F)c2C1=O` (centres unmarked) [Compound A28, 2-(2,6-dioxopiperidin-3-yl)-5-(4-((4-((4-((2-methyl-3-oxoisoindolin-4-yl)oxy)-5-(trifluoromethyl)pyrimidin-2-yl)amino)benzyl)amino)piperidin-1-yl)isoindoline-1,3-dione], the DC50 amounted to 0.87 nM and the Dmax stood at 91%.

`CNC(=O)c1ccccc1Nc1cc(Nc2ccc(CNC3CCN(c4ccc5c(c4)C(=O)N(C4CCC(=O)NC4=O)C5=O)CC3)c(F)c2)ncc1C(F)(F)F` (centres unmarked) [Compound A29, 2-((2-((4-(((1-(2-(2,6-dioxopiperidin-3-yl)-1,3-dioxoisoindolin-5-yl)piperidin-4-yl)amino)-methyl)-3-fluorophenyl)amino)-5-(trifluoromethyl)pyridin-4-yl)amino)-N-methyl-benzamide]: the DC50 amounted to 8.55 nM and the Dmax came to 97%.

As to `CN(c1nccnc1CNc1nc(Nc2ccc(CNC3CCN(c4ccc5c(c4)C(=O)N(C4CCC(=O)NC4=O)C5=O)CC3)c(F)c2)ncc1C(F)(F)F)S(C)(=O)=O` (centres unmarked) [Compound A30, N-(3-(((2-((4-(((1-(2-(2,6-dioxopiperidin-3-yl)-1,3-dioxoisoindolin-5-yl)piperidin-4-yl)amino)methyl)-3-fluorophenyl)amino)-5-(trifluoromethyl)pyrimidin-4-yl)amino)methyl)-pyrazin-2-yl)-N-methylmethanesulfonamide], the DC50 amounted to 1.3 nM and the Dmax was 96%.

Take `CN(c1cccc(CNc2cc(Nc3ccc(CNC4CCN(c5ccc6c(c5)C(=O)N(C5CCC(=O)NC5=O)C6=O)CC4)c(F)c3)ncc2C(F)(F)F)c1)S(C)(=O)=O` (centres unmarked) [Compound A31, N-(3-(((2-((4-(((1-(2-(2,6-Dioxopiperidin-3-yl)-1,3-dioxoisoindolin-5-yl)-piperidin-4-yl)amino)methyl)-3-fluorophenyl)amino)-5-(trifluoromethyl)pyridin-4-yl)amino)-methyl)phenyl)-N-methylmethanesulfonamide]: the DC50 worked out at 6.1 nM and the Dmax stood at 98%.

On to `CNC(=O)c1ccccc1Nc1cc(Nc2ccc(CN[C@@H]3CCN(c4ccc5c(c4)C(=O)N(C4CCC(=O)NC4=O)C5=O)C3)cc2)ncc1C(F)(F)F` (stereo partly drawn) [Compound A32, 2-((2-((4-((((3R)-1-(2-(2,6-Dioxopiperidin-3-yl)-1,3-dioxoisoindolin-5-yl)-pyrrolidin-3-yl)amino)methyl)phenyl)amino)-5-(trifluoromethyl)pyridin-4-yl)amino)-N-methylbenzamide], for which the DC50 is 0.79 nM and the Dmax was found to be 91%.

Take `CNC(=O)c1ccccc1Nc1cc(Nc2ccc(CN[C@H]3CCN(c4ccc5c(c4)C(=O)N(C4CCC(=O)NC4=O)C5=O)C3)cc2)ncc1C(F)(F)F` (stereo partly drawn) [Compound A33, 2-((2-((4-((((3S)-1-(2-(2,6-Dioxopiperidin-3-yl)-1,3-dioxoisoindolin-5-yl)-pyrrolidin-3-yl)amino)methyl)phenyl)amino)-5-(trifluoromethyl)pyridin-4-yl)amino)-N-methylbenzamide]: the DC50 was determined as 0.86 nM and the Dmax is 94%.

Regarding `CS(=O)(=O)c1ccccc1Nc1cc(Nc2ccc(CNC3CCN(c4ccc5c(c4)C(=O)N(C4CCC(=O)NC4=O)C5=O)CC3)cc2)ncc1C(F)(F)F` (centres unmarked) [Compound A34, 2-(2,6-Dioxopiperidin-3-yl)-5-(4-((4-((4-((2-(methylsulfonyl)phenyl)amino)-5-(trifluoromethyl)pyridin-2-yl)amino)benzyl)amino)piperidin-1-yl)isoindoline-1,3-dione], the DC50 amounted to 25 nM and the Dmax came out at 83%.

With `CN(c1ccccc1CNc1cc(Nc2ccc(CNC3CCN(c4ccc5c(c4)C(=O)N(C4CCC(=O)NC4=O)C5=O)CC3)c(F)c2)ncc1C(F)(F)F)S(C)(=O)=O` (centres unmarked) [Compound A35, N-(2-(((2-((4-(((1-(2-(2,6-Dioxopiperidin-3-yl)-1,3-dioxoisoindolin-5-yl)-piperidin-4-yl)amino)methyl)-3-fluorophenyl)amino)-5-(trifluoromethyl)pyridin-4-yl)amino)-methyl)phenyl)-N-methylmethanesulfonamide], the DC50 amounted to 8.1 nM and the Dmax was found to be 95%.

For the compound `CN(c1nccnc1CNc1nc(Nc2ccc(CN[C@@H]3CCN(c4ccc5c(c4)C(=O)N(C4CCC(=O)NC4=O)C5=O)C[C@@H]3F)cc2)ncc1C(F)(F)F)S(C)(=O)=O` (stereo partly drawn) [Compound A36, N-(3-(((2-((4-((((3S,4R)-1-(2-(2,6-Dioxopiperidin-3-yl)-1,3-dioxoisoindolin-5-yl)-3-fluoropiperidin-4-yl)amino)methyl)phenyl)amino)-5-(trifluoromethyl)pyrimidin-4-yl)amino)-methyl)pyrazin-2-yl)-N-methylmethanesulfonamide], the DC50 is 0.83 nM and the Dmax was 94%.

On to `CNC(=O)c1ccccc1Nc1nc(Nc2ccc(CNC3CCN(c4ccc5c(c4)C(=O)N(C4CCC(=O)NC4=O)C5=O)CC3)c(F)c2)ncc1C(F)(F)F` (centres unmarked) [Compound A37, 2-((2-((4-(((1-(2-(2,6-dioxopiperidin-3-yl)-1,3-dioxoisoindolin-5-yl)piperidin-4-yl)-amino)methyl)-3-fluorophenyl)amino)-5-(trifluoromethyl)pyrimidin-4-yl)amino)-N-methyl-benzamide], for which the DC50 was 0.86 nM and the Dmax worked out at 94%.

As to `CNC(=O)c1ccccc1Nc1nc(Nc2ccc3c(c2)CC(=O)N3CC2CCN(c3ccc4c(c3)C(=O)N(C3CCC(=O)NC3=O)C4=O)CC2)ncc1C(F)(F)F` (centres unmarked) [Compound A38, 2-((2-((1-((1-(2-(2,6-dioxopiperidin-3-yl)-1,3-dioxoisoindolin-5-yl)piperidin-4-yl)methyl)-2-oxoindolin-5-yl)amino)-5-(trifluoromethyl)pyrimidin-4-yl)amino)-N-methylbenzamide], the DC50 came to 0.84 nM and the Dmax was determined as 88%.

For `CNC(=O)c1ccccc1Nc1nc(Nc2ccc(CN[C@@H]3CCN(c4ccc5c(c4)C(=O)N(C4CCC(=O)NC4=O)C5=O)C[C@@H]3F)cc2)ncc1C(F)(F)F` (stereo partly drawn) [Compound A39, 2-((2-((4-((((3S,4R)-1-(2-(2,6-Dioxopiperidin-3-yl)-1,3-dioxoisoindolin-5-yl)-3-fluoropiperidin-4-yl)amino)methyl)phenyl)amino)-5-(trifluoromethyl)pyrimidin-4-yl)amino)-N-methylbenzamide], the DC50 came out at 0.71 nM and the Dmax is 89%.
